Among the data in the RepoRT retention time repository are LC retention time values, retold here.

Structures can show the parent of a compound that is named as a salt.

The data set in a line: RP, Thermo Scientific Hypersil GOLD, 1.9 µm, 40 °C, 0.4 mL/min; A: water + 0.1% formic acid, pH 3; B: acetonitrile + 0.1% formic acid, pH 3; gradient (min/%B) 0/0 1/0 11/100 13/100 14/0 16/0. The following applies: stereoisomer not certain.
`Nc1ccnc(=O)[nH]1` [CYTOSINE]: the LC retention time was found to be 0.65 min.

Regarding `CC(CCC(=O)O)C1CCC2C3C(O)CC4CC(O)CCC4(C)C3CCC12C` (centres undefined) [CHENODEOXYCHOLATE], the LC retention time was 9.15 min.

As to `CCOC(=O)Cc1c[nH]c2ccccc12` [ETHYL 3-INDOLEACETATE], the LC retention time worked out at 8.03 min.

Consider `NC(N)=NCCCC(=O)O` [4-GUANIDINOBUTANOATE], for which the LC retention time was found to be 0.84 min.

On to `Cn1cnc(=N)c2[nH]cnc21` [3-METHYLADENINE], for which the LC retention time is 0.8 min.

Regarding `NCCOP(=O)(O)OP(=O)(O)OCC1OC(n2ccc(N)nc2=O)C(O)C1O` (centres undefined) [CDP-ETHANOLAMINE], the LC retention time was 0.64 min.

Take `CCCCCCCCC=CCCCCCCCCCCCC(=O)O` [ERUCATE]: the LC retention time came to 13.5 min.

Turning to `Oc1ccccc1` [PHENOL], the LC retention time is 6.21 min.

Regarding `C=C(C)C1CCC2(C(=O)O)CCC3(C)C(CCC4C5(C)CCC(O)C(C)(C)C5CCC43C)C12` (centres undefined) [Betulinic acid], the LC retention time was determined as 11.2 min.

For the molecule `NC(CCCC(=O)O)C(=O)O` (centres undefined) [AMINOADIPATE], the LC retention time is 0.67 min.

Take `CCOC(N)=O` [Urethane]: the LC retention time amounted to 2.11 min.

Consider `CNCC(=O)O` [SARCOSINE], for which the LC retention time was determined as 0.62 min.

As for `NCC[Se][Se]CCN` [SELENOCYSTAMINE], the LC retention time came to 0.56 min.

On to `O=C(O)C(=O)Cc1ccccc1` [PHENYLPYRUVATE], for which the LC retention time turned out to be 5.26 min.

For the molecule `CC(O)(CCO)CC(=O)[O-]` (centres undefined) [MEVALONATE], the LC retention time amounted to 0.55 min.

For `CC(C)(CC(=O)O)C(=O)O` [2-2-Dimethylsuccinic acid], the LC retention time stood at 4.85 min.

Consider `O=C(O)C(=O)Cc1c[nH]c2ccccc12` [INDOLE-3-PYRUVATE], for which the LC retention time was determined as 6 min.

Consider `O=C1CC(c2ccc(O)cc2)Oc2cc(O)cc(O)c21` (centres undefined) [Naringenin], for which the LC retention time stood at 7.04 min.

Regarding `O=c1cc[nH]c(=O)[nH]1` [URACIL], the LC retention time is 0.84 min.

Consider `O=C(O)Cc1cnc[nH]1` [4-IMIDAZOLEACETATE], for which the LC retention time came out at 0.67 min.

Consider `O=C1CCC(C(=O)O)N1` (centres undefined) [OXOPROLINE], for which the LC retention time worked out at 0.82 min.

Regarding `NC(CSCC(=O)O)C(=O)O` (centres undefined) [S-CARBOXYMETHYLCYSTEINE], the LC retention time was determined as 0.68 min.

For the molecule `C[Se]CCC(N)C(=O)O` (centres undefined) [SELENOMETHIONINE], the LC retention time was 0.92 min.

Regarding `NC(=O)CC[C@H](N)C(=O)O` [L-Glutamine], the LC retention time worked out at 0.62 min.

Consider `CC(CCC(=O)NCCS(=O)(=O)O)C1CCC2C3CCC4CC(O)CCC4(C)C3CCC12C` (centres undefined) [LITHOCHOLYLTAURINE], for which the LC retention time amounted to 8.73 min.

With `CCCCCCCCCCCCCCCC(=O)OC(CC(=O)[O-])C[N+](C)(C)C` [Palmitoyl-L-carnitine], the LC retention time turned out to be 9.69 min.

As for `CC(C)CC(=O)OC(CC(=O)[O-])C[N+](C)(C)C` [Isovaleryl-L-carnitine], the LC retention time was 4.92 min.

On to `CN1C(=O)CCC1c1cccnc1` (centres undefined) [Cotinine], for which the LC retention time was determined as 0.83 min.

As for `CC1NC(=O)NC1CCCCCC(=O)O` (centres undefined) [DETHIOBIOTIN], the LC retention time is 5.47 min.

Consider `O=C(O)c1ccc[nH]1` [PYRROLE-2-CARBOXYLATE], for which the LC retention time was 4.3 min.

As to `CC(=O)c1ccc(O)cc1O` [2'-4'-DIHYDROXYACETOPHENONE], the LC retention time was determined as 6.1 min.

With `OCC1OC(O)C(O)C(O)C1O` (centres undefined) [GALACTOSE], the LC retention time was 0.64 min.

Take `[NH3+]CC(=O)N1CCCC1C(=O)[O-]` (centres undefined) [Gly-Pro]: the LC retention time came out at 0.82 min.

Regarding `Oc1ccc2[nH]ccc2c1` [5-Hydroxyindole], the LC retention time worked out at 4.72 min.

On to `OCC1OC(OCC2OC(O)(CO)C(O)C2O)C(O)C(O)C1O` (centres undefined) [PALATINOSE], for which the LC retention time turned out to be 0.67 min.

On to `Cn1c(=O)[nH]c(=O)c2[nH]cnc21` [3-Methylxanthine], for which the LC retention time is 2.61 min.

Regarding `CC(CN)C(=O)O` (centres undefined) [AMINOISOBUTANOATE], the LC retention time was 0.67 min.

As for `Nc1ccn(C2OC(CO)C(O)C2O)c(=O)n1` (centres undefined) [CYTIDINE], the LC retention time amounted to 0.78 min.

Turning to `OCC1OC(OCC2OC(O)C(O)C(O)C2O)C(O)C(O)C1O` (centres undefined) [MELIBIOSE], the LC retention time came to 0.63 min.

Take `CC(=O)Oc1cccc(O)c1` [RESORCINOL MONOACETATE]: the LC retention time came to 6.1 min.

Turning to `O=Cc1ccc(O)cc1` [4-HYDROXYBENZALDEHYDE], the LC retention time was 5.13 min.

With `Nc1ccn(C2CC(O)C(CO)O2)c(=O)n1` (centres undefined) [DEOXYCYTIDINE], the LC retention time was 0.83 min.

For the molecule `CC(=O)NC(C(=O)O)C(C)C` (racemic) [N-acetyl-DL-valine], the LC retention time came to 4.62 min.

With `CNCC(O)c1ccc(O)c(O)c1` (centres undefined) [EPINEPHRINE], the LC retention time was found to be 0.74 min.

On to `CC(=O)NC(CS)C(=O)O` (centres undefined) [N-ACETYLCYSTEINE], for which the LC retention time was determined as 1.9 min.

For the molecule `O=c1cccc[nH]1` [2-HYDROXYPYRIDINE], the LC retention time was 1.6 min.

Take `Cn1c(=O)[nH]c2ncn(C)c2c1=O` [PARAXANTHINE]: the LC retention time was 4.41 min.

As for `CC(CCC(=O)NCCS(=O)(=O)O)C1CCC2C3C(O)CC4CC(O)CCC4(C)C3CC(O)C12C` (centres undefined) [taurocholic acid  sodium salt hydrate], the LC retention time amounted to 7.13 min.

For `NC(CCO)C(=O)O` (centres undefined) [HOMOSERINE], the LC retention time is 0.62 min.

In the case of `CC(C)(CC(=O)O)CC(=O)O` [3-3-Dimethylglutaric acid], the LC retention time was determined as 5.04 min.

Take `Cn1cnc(C[C@H](N)C(=O)O)c1` [1-METHYL-L-HISTIDINE]: the LC retention time was 0.59 min.

For the molecule `NC(=O)Cc1c[nH]c2ccccc12` [INDOLE-3-ACETAMIDE], the LC retention time was found to be 5.37 min.

For `CCCCCCCCCCCCCC=CC(O)C(CO)NC(C)=O` [N-Acetyl-D-sphingosine], the LC retention time was found to be 10.8 min.

`O=C(O)c1ccc(O)cc1O` [2-4-Dihydroxybenzoic acid]: the LC retention time was 4.88 min.

Consider `O=C(O)Cc1ccc(O)c(O)c1` [3-4-DIHYDROXYPHENYLACETATE], for which the LC retention time was 4.32 min.

For the molecule `CC(=O)C1(O)CCC2C3CC=C4CC(O)CCC4(C)C3CCC21C` (centres undefined) [17a-Hydroxypregnenolone], the LC retention time was 0.67 min.

Consider `Nc1nc2c(ncn2C2CC(O)C(CO)O2)c(=O)[nH]1` (centres undefined) [DEOXYGUANOSINE], for which the LC retention time is 1.77 min.

As to `CC(=O)NCCCNCCCCNCCCN` [N1-ACETYLSPERMINE], the LC retention time turned out to be 0.5 min.

With `CN(CC(=O)O)C(=N)N` [CREATINE], the LC retention time turned out to be 0.66 min.

On to `Cc1cc(O)cc2c1OC(C)(CCC(=O)O)CC2` (centres undefined) [delta CEHC], for which the LC retention time came to 6.88 min.

As to `Nc1ccn(C2CC(O)C(COP(=O)([O-])OP(=O)([O-])[O-])O2)c(=O)n1` (centres undefined) [DEOXYCYTIDINE-DIPHOSPHATE], the LC retention time came out at 1.13 min.

`O=C(O)C=Cc1cnc[nH]1` [UROCANATE]: the LC retention time was 0.82 min.

For the molecule `O=C(O)CC(C(=O)O)C(O)C(=O)O` (centres undefined) [ISOCITRATE], the LC retention time worked out at 2.37 min.

As to `NC(=O)C1CCCN1C(=O)C(Cc1cnc[nH]1)NC(=O)C1CCC(=O)N1` (centres undefined) [THYROTROPIN RELEASING HORMONE], the LC retention time came out at 0.84 min.

As to `O=CC(O)C1OC(=O)C(O)C1O` [D-GLUCURONOLACTONE], the LC retention time was determined as 0.71 min.

With `NC(=O)NCCC(=O)O` [UREIDOPROPIONATE], the LC retention time worked out at 0.82 min.

For the molecule `CSCC1OC(n2cnc3c(N)ncnc32)C(O)C1O` (centres undefined) [METHYLTHIOADENOSINE], the LC retention time stood at 4.41 min.

Consider `Nc1ncnc2c1ncn2C1OC(CO)C(O)C1O` (centres undefined) [ADENOSINE], for which the LC retention time was 0.86 min.

`O=C(O)c1cccnc1C(=O)O` [QUINOLINATE]: the LC retention time was found to be 1.22 min.

Turning to `C=Cc1c(C)c2cc3[nH]c(cc4nc(cc5nc(cc1[nH]2)C(C)=C5CCC(=O)O)C(CCC(=O)O)=C4C)c(C)c3C=C` [PROTOPORPHYRIN], the LC retention time was 11.7 min.

For `CCC(=O)C(=O)[O-]` [2-OXOBUTANOATE], the LC retention time is 9.98 min.

Regarding `N[C@@H](Cc1ccc(O)c([N+](=O)[O-])c1)C(=O)O` [3-NITRO-L-TYROSINE], the LC retention time came to 3.77 min.

For `C[N+](C)(C)CCCC(=O)O` [DEOXYCARNITINE], the LC retention time stood at 0.67 min.

As for `CCCCCCCCC=CCCCCCCCC(=O)OCC(O)COP(=O)([O-])OCC[N+](C)(C)C` (centres undefined) [18-1_LysoPC], the LC retention time was found to be 0.61 min.

`O=c1cccc(O)[nH]1` [2-6-DIHYDROXYPYRIDINE]: the LC retention time was found to be 1.09 min.

For `Nc1ccccc1C(=O)O` [ANTHRANILATE], the LC retention time came out at 5.29 min.

As for `NC(Cc1cc(I)c(Oc2cc(I)c(O)c(I)c2)c(I)c1)C(=O)O` (centres undefined) [THYROXINE], the LC retention time was found to be 7.42 min.

Consider `NCCC(=O)NC(Cc1cnc[nH]1)C(=O)O` (centres undefined) [CARNOSINE], for which the LC retention time was 0.59 min.

Consider `CC12CCC(=O)C=C1CCC1C2C(O)CC2(C)C1CCC2(O)C(=O)CO` (centres undefined) [CORTISOL], for which the LC retention time is 6.73 min.
